According to PubChem BioAssay (NCI):
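The compound was tested at five concentrations on cells cultured in 96-well plates, with a 48-hour exposure period. TGI: total growth inhibition.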

How the values were obtained:
Assay in all cases: inhibition of tumour cell growth, NCI panel, 48 h
MDA-N = test system: MDA-N
CAKI-1 renal = test system: CAKI-1 renal
A498 renal = test system: A498 renal
EKVX NSCLC = test system: EKVX NSCLC
T-47D breast = test system: T-47D breast
UACC-257 melanoma = test system: UACC-257 melanoma
RPMI-8226 leukemia = test system: RPMI-8226 leukemia
K-562 leukemia = test system: K-562 leukemia
SK-OV-3 ovarian = test system: SK-OV-3 ovarian
LOX IMVI melanoma = test system: LOX IMVI melanoma
UACC-62 melanoma = test system: UACC-62 melanoma
OVCAR-5 ovarian = test system: OVCAR-5 ovarian
SF-539 CNS = test system: SF-539 CNS
TK-10 renal = test system: TK-10 renal
UO-31 renal = test system: UO-31 renal
CCRF-CEM leukemia = test system: CCRF-CEM leukemia
MCF7 breast = test system: MCF7 breast
NCI/ADR-RES ovarian = test system: NCI/ADR-RES ovarian
KM12 colon = test system: KM12 colon
IGROV1 ovarian = test system: IGROV1 ovarian
HT29 colon = test system: HT29 colon
MDA-MB-231 breast = test system: MDA-MB-231 breast
SW-620 colon = test system: SW-620 colon
A549 NSCLC = test system: A549 NSCLC
SNB-75 CNS = test system: SNB-75 CNS
OVCAR-8 ovarian = test system: OVCAR-8 ovarian
OVCAR-4 ovarian = test system: OVCAR-4 ovarian
HCC-2998 colon = test system: HCC-2998 colon
M14 melanoma = test system: M14 melanoma
NCI-H23 lung = test system: NCI-H23 lung
SK-MEL-2 melanoma = test system: SK-MEL-2 melanoma
COLO 205 colon = test system: COLO 205 colon
HCT-15 colon = test system: HCT-15 colon
SN12C renal = test system: SN12C renal
SK-MEL-28 melanoma = test system: SK-MEL-28 melanoma
SF-295 CNS = test system: SF-295 CNS
ACHN renal = test system: ACHN renal
SF-268 CNS = test system: SF-268 CNS
SK-MEL-5 melanoma = test system: SK-MEL-5 melanoma
OVCAR-3 ovarian = test system: OVCAR-3 ovarian
HOP-92 NSCLC = test system: HOP-92 NSCLC
NCI-H522 lung = test system: NCI-H522 lung
DU-145 prostate = test system: DU-145 prostate
BT-549 breast = test system: BT-549 breast
PC-3 prostate = test system: PC-3 prostate
U251 CNS = test system: U251 CNS
SR leukemia = test system: SR leukemia
MALME-3M melanoma = test system: MALME-3M melanoma
HCT-116 colon = test system: HCT-116 colon
NCI-H460 lung = test system: NCI-H460 lung
HOP-62 NSCLC = test system: HOP-62 NSCLC
RXF 393 renal = test system: RXF 393 renal
SNB-19 CNS = test system: SNB-19 CNS
786-0 renal = test system: 786-0 renal
HS 578T breast = test system: HS 578T breast
MOLT-4 leukemia = test system: MOLT-4 leukemia
MDA-MB-435 = test system: MDA-MB-435

SMILES: O=c1ccnc(SCc2ccc(Cl)cc2)[nH]1
- TGI (MDA-N): > 100 µM
- TGI (CAKI-1 renal): > 100 µM
- TGI (A498 renal): > 100 µM
- TGI (EKVX NSCLC): > 100 µM
- TGI (T-47D breast): > 100 µM
- TGI (UACC-257 melanoma): > 100 µM
- TGI (RPMI-8226 leukemia): > 100 µM
- TGI (K-562 leukemia): > 100 µM
- TGI (SK-OV-3 ovarian): > 100 µM
- TGI (LOX IMVI melanoma): > 100 µM
- TGI (UACC-62 melanoma): > 100 µM
- TGI (OVCAR-5 ovarian): > 100 µM
- TGI (SF-539 CNS): > 100 µM
- TGI (TK-10 renal): > 100 µM
- TGI (UO-31 renal): > 100 µM
- TGI (CCRF-CEM leukemia): > 100 µM
- TGI (MCF7 breast): > 100 µM
- TGI (NCI/ADR-RES ovarian): > 100 µM
- TGI (KM12 colon): > 100 µM
- TGI (IGROV1 ovarian): > 100 µM
- TGI (HT29 colon): > 100 µM
- TGI (MDA-MB-231 breast): > 100 µM
- TGI (SW-620 colon): > 100 µM
- TGI (A549 NSCLC): > 100 µM
- TGI (SNB-75 CNS): > 100 µM
- TGI (OVCAR-8 ovarian): > 100 µM
- TGI (OVCAR-4 ovarian): > 100 µM
- TGI (HCC-2998 colon): 66.2 µM
- TGI (M14 melanoma): > 100 µM
- TGI (NCI-H23 lung): > 100 µM
- TGI (SK-MEL-2 melanoma): > 100 µM
- TGI (COLO 205 colon): > 100 µM
- TGI (HCT-15 colon): > 100 µM
- TGI (SN12C renal): > 100 µM
- TGI (SK-MEL-28 melanoma): > 100 µM
- TGI (SF-295 CNS): > 100 µM
- TGI (ACHN renal): > 100 µM
- TGI (SF-268 CNS): > 100 µM
- TGI (SK-MEL-5 melanoma): > 100 µM
- TGI (OVCAR-3 ovarian): > 100 µM
- TGI (HOP-92 NSCLC): > 100 µM
- TGI (NCI-H522 lung): > 100 µM
- TGI (DU-145 prostate): > 100 µM
- TGI (BT-549 breast): > 100 µM
- TGI (PC-3 prostate): > 100 µM
- TGI (U251 CNS): > 100 µM
- TGI (SR leukemia): > 100 µM
- TGI (MALME-3M melanoma): > 100 µM
- TGI (HCT-116 colon): > 100 µM
- TGI (NCI-H460 lung): > 100 µM
- TGI (HOP-62 NSCLC): > 100 µM
- TGI (RXF 393 renal): > 100 µM
- TGI (SNB-19 CNS): > 100 µM
- TGI (786-0 renal): > 100 µM
- TGI (HS 578T breast): > 100 µM
- TGI (MOLT-4 leukemia): > 100 µM
- TGI (MDA-MB-435): > 100 µM
